What follows are compounds tested against T1, human TLR7 (Homo sapiens, UniProt Q9NYK1) (assay: HEK293-Blue-hTLR-7 cells assay (SEAP reporter, R848 stimulation)). Conditions: HEK293-Blue-hTLR-7 cells, R848 ligand, 20 hrs incubation; read-out: TLR7 IC50.
T1 sequence (Q9NYK1 27-1049): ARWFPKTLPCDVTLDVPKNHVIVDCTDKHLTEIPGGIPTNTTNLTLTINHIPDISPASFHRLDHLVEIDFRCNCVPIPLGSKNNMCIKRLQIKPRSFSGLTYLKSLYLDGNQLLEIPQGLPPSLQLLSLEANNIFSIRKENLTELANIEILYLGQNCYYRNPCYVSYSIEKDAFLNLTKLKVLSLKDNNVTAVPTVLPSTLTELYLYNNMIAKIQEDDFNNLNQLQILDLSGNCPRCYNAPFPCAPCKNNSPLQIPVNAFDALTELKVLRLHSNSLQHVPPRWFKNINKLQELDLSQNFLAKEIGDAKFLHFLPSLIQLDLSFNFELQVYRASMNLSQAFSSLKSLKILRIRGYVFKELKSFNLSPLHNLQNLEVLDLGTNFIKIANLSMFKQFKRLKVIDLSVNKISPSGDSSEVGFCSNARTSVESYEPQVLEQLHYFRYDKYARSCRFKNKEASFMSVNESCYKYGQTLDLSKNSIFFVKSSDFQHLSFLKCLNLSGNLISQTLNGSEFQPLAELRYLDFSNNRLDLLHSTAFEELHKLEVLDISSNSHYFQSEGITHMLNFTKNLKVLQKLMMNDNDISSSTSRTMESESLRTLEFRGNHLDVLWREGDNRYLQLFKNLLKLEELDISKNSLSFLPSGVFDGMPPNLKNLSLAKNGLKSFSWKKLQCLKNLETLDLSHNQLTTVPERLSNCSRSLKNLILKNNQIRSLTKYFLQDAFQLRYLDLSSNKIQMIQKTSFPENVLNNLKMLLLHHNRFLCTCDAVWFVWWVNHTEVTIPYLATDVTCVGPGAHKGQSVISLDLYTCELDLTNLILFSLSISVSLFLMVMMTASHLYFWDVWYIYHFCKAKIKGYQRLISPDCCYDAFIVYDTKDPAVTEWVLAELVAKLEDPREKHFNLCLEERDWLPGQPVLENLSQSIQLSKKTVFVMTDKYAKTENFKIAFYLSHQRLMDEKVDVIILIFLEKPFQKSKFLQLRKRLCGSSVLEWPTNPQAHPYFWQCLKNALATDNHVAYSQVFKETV
Type: cell-based
Description: The following tests were carried out in order to determine the activity of the compounds of formula (I) in HEK293-Blue-hTLR-7/8/9 cells assay.
HEK293-Blue-hTLR-7 Cells Assay:
A stable HEK293-Blue-hTLR-7 cell line was purchased from InvivoGen (Cat. #: hkb-htlr7, San Diego, California, USA). These cells were originally designed for studying the stimulation of human TLR7 by monitoring the activation of NF-κB. A SEAP (secreted embryonic alkaline phosphatase) reporter gene was placed under the control of the IFN-β minimal promoter fused to five NF-κB and AP-1-binding sites. The SEAP was induced by activating NF-κB and AP-1 via stimulating HEK-Blue hTLR7 cells with TLR7 ligands. Therefore the reporter expression was declined by TLR7 antagonist under the stimulation of a ligand, such as R848 (Resiquimod), for incubation of 20 hrs. The cell culture supernatant SEAP reporter activity was determined using QUANTI-Blue™ kit (Cat. #: rep-qb1, Invivogen, San Diego, Ca, USA) at a wavelength of 640 nm, a detection medium that turns purple or blue in the presence of alkaline phosphatase.
HEK293-Blue-hTLR7 cells were incubated at a density of 250,000˜450,000 cells/mL in a volume of 170 μL in a 96-well plate in Dulbecco's Modified Eagle's medium (DMEM) containing 4.5 g/L glucose, 50 U/mL penicillin, […], […], 2 mM L-glutamine, 10% (v/v) heat-inactivated fetal bovine serum with addition of 20 μL test compound in a serial dilution in the presence of final DMSO at 1% and 10 μL of 20 uM R848 in above DMEM, perform incubation under 37° C. in a CO2 incubator for 20 hrs. Then 20 μL of the supernatant from each well was incubated with 180 μL Quanti-blue substrate solution at 37° C. for 2 hrs and the absorbance was read at 620˜655 nm using a spectrophotometer. The signalling pathway that TLR7 activation leads to downstream NF-κB activation has been widely accepted, and therefore similar reporter assay was modified for evaluating TLR7 antagonist.

| IC50 | Compound |
| --- | --- |
| 50 nM | C[C@@H]1CN(c2ccc(C#N)n3nccc23)C[C@H](C(=O)NC2C3CNC[C@@H]32)O1 (stereo partly drawn) [Example 31, Trans-(2R,6R)-N-(3-azabicyclo[3.1.0]hexan-6-yl)-4-(7-cyanopyrazolo[1,5-a]pyridin-4-yl)-6-methyl-morpholine-2-carboxamide] |
| 55 nM | C[C@@H]1CN(c2ccc(C#N)n3nccc23)C[C@H](C(=O)NCC2CNCC2(F)F)O1 (stereo partly drawn) [Example 18, (2R,6R)-4-(7-cyanopyrazolo[1,5-a]pyridin-4-yl)-N-[(4,4-difluoropyrrolidin-3-yl)methyl]-6-methyl-morpholine-2-carboxamide] |

Further lines, the compound ahead of its results:

| Compound | IC50 |
| --- | --- |
| C[C@@H]1CN(c2ccc(C#N)n3nccc23)C[C@H](C(=O)NC2CC3CCCC(C2)N3)O1 (stereo partly drawn) [Example 14, (2R,6R)-N-(9-azabicyclo[3.3.1]nonan-3-yl)-4-(7-cyanopyrazolo[1,5-a]pyridin-4-yl)-6-methyl-morpholine-2-carboxamide] | 7 nM |
| C[C@H]1C[C@@H](NCC#N)CN(c2ccc(C#N)n3nccc23)C1 [Example 46, 4-[(3R,5S)-3-(cyanomethylamino)-5-methyl-1-piperidyl]pyrazolo[1,5-a]pyridine-7-carbonitrile] | 170 nM |
| C[C@@H]1CN(c2ccc(C#N)n3nccc23)C[C@H](C(=O)NC2CC3CCC(C2)N3C)O1 (stereo partly drawn) [Example 33, (2R,6R)-4-(7-cyanopyrazolo[1,5-a]pyridin-4-yl)-6-methyl-N-(8-methyl-8-azabicyclo[3.2.1]octan-3-yl)morpholine-2-carboxamide] | 4 nM |
